Results on 1 compound are retold here after PMC9814901, “One-pot synthesis of cyclic-aminotropiminium carboxylate derivatives with DNA binding and anticancer properties” (Communications Chemistry, 2022).

pIC50: −log10 of the molar value.

Series [1] deals with HeLa cells. Description: Cell cycle analysis by flow cytometry (PI). The series is classed as cell-based. To be noted: 18 h, 6e 18 μM, 6j 19 μM, 6n 19 μM. The method, then:
HeLa cells were cultured in 6 well plates with initial density 0.5 × 10^6 cells/well. These cells were treated with the IC50 concentration of 6n, 6j, and 6e compounds for 18 h. The cells were washed with 1X PBS and fixed with 70% ethanol. After washing, cells were resuspended in 500 μl PBS containing Propidium Iodide (PI) (500 μg/ml), RNase A (1X), and Triton X-100 (0.1%), and incubated for 30 min in the dark. Finally, the cells were analyzed by flow cytometry (BD Biosciences, CA, USA). The relative proportions of cells with DNA content G0–G1 (2n), S phase (>2n but <4n), and G2/M phase (4n) were acquired and analyzed using CellQuest Pro software (BD Biosciences).

The test system of series [2] is HeLa cells. Kind of series: Scratch (wound healing) assay in HeLa. The series is classed as cell-based. To be noted: 6e 18 μM, 6j 19.23 μM, 6n 18.92 μM, 0 h to 24 h. Here is the method: HeLa and HEK293 cells (0.25 × 10^6) were seeded into 12-well plates to grow in a monolayer for 24 h. A Scratch was made in the middle of the well using a sterile 200 µl pipette tip. The detached cells were removed by washing with 1x DPBS. The cell monolayers were treated for 18 h with 19 µM of 6n and 6j, and 18 µM of 6e with 10% DMEM. DMSO with 10% DMEM was used as a control. Images were collected at 0 h and 24 h under an inverted microscope (Ziess, Germany) at (4×) magnification. Cell migration was analyzed using ImageJ (NIH) software.

The subject of a further series is 4T1 cell derived tumor. Description: 4T1 xenograft tumor growth in Balb/C mice. Particulars: Balb/C 4T1 model, 6e 1 mg/kg/day, 6j 0.5 mg/kg/day, 6n 1 mg/kg/day. It counts as in vivo, mouse. Here is the method:
To understand the potential and tolerance of 6e, 6j, and 6n compounds using in vivo system, we used Balb/C 4T1 cell line xenograft mouse model. Treatment was initiated after tumors reached a mean value of 20.47 mm^3 (day 8) and treated with 6e, 6j, and 6n at a dosage of 1 mg/kg/day, 0.5 mg/kg/day, and 1 mg/kg/day, respectively. Body weight and activity were observed three days post injection, every alternative day. […] Based on this study, we deduced that these compounds are well tolerated by the animals.
All animal experiments were approved by the Institutional Animal Ethics Committee, NISER, India (AH-214). Female BALB/c mice (aged 6–8 weeks, 18–20 g) were injected with 1 × 10^6 4T1 breast cancer cells into the mammary fat pad. After one week, 6j (0.5 mg/kg), 6e (1 mg/kg) and 6n (1 mg/kg) compounds were injected intraperitoneally in mice at the interval of every 24 h for a period of 21 days. Thereafter, the mice were sacrificed and the xenograft tumors were removed, weighed, and photographed.

The nature of series [3]: MTS cell viability assay in HeLa. The series is classed as cell-based. To be noted: human, HeLa cells; HeLa, 50 μM, 18 h. Here is the method: (§1) We investigated the effect of nine cATC derivatives (6b/6d/6e/6f/6i/6j/6k/6l/6n) on cell viability in cancer cell-line HeLa and transformed normal cell-line HEK293. We treated cells with the varying concentrations of the compounds ranging from 10 nM to 50 μM for 18 h (optimized).
(§2) MTS assay (CellTiter 96® AQueous One Solution Cell Proliferation Assay (Promega, USA) was used to determine the cell viability. HeLa and HEK293 cells (20,000 cells in each well) were plated in 96 well plate and treated with 6e, 6j, and 6n varying concentrations of the compounds ranging from 10 nM to 50 μM for 18 h. The assay was carried out according to the manufacturer’s instructions. Finally, the plate was read in Varioskan™ LUX multimode microplate reader (Thermo Fisher Scientific) at 490 nm.
(§3) Cell scavenging activity was calculated using the following formula:
(§4) OD(490nm) (control) – OD(490nm) (Test)/OD(490nm) (control) × 100%
(§5) Cell Viability of the cell was calculated using the following formula: […]
(In general: Formazan colour is commonly taken as a measure of viable cells.)

The test system of series [4] is HeLa cells. Kind of series: MTS cell viability assay in HeLa. It counts as cell-based. To be noted: for pIC50: Homo sapiens. Here is the method: as §1, §2, §3, §4, §5
For the next series, the system named is human genomic DNA. Description: Microscale thermophoresis (MST) binding of cATC derivatives to human genomic DNA. To be noted: cATC derivative 20 µM, human genomic DNA 40 fM to 75 pM. The text has this:
Further, we examined the effect of cATC derivatives (6a/6e/6j/6n) on the ct-DNA duplex structure by circular dichroism (CD) studies. We recorded the CD spectra of ct-DNA with the increasing concentration of cATC derivatives (SM, Fig. S24). […] Next, we examined the binding site of cATC derivative (ligand) at the DNA duplex structure by using AutoDock-Vina, a well-reported computational docking program. We performed docking of cATC derivatives (6a/6d/6k) crystal structure (ligand) with dodecamer DNA duplex crystal structure (PDB ID-1BNA) as the receptor. Our docking results strongly support the non-covalent interaction of cATC derivatives (6a/6d/6k) at the DNA-minor groove with the binding affinity ~7.0 Kcal/mole, mostly hydrophobic interactions (SM, Figs. S25–7, Table S8). […]
DNA was isolated from 10 × 10^6 HeLa cells by QIAmp DNA mini Kit (Qiagen, Germany). cATC derivatives (6e, 6j, and 6n dissolved in a mixture of 1X PBS containing 1% DMSO) and DNA ranging from a concentration of 40 fM to 75pM (resuspended in 1X TE with 0.05% Tween-20), was used for analyzing the interaction of cATC derivatives with DNA. […] 15 µl of the above mixture was loaded in capillaries and binding affinity was measured using the NanoTemper instrument followed by analysis through NanoTemper analysis 1.2.231 software.

As to `Cc1cccc(C2C(C(=O)[O-])N(CCc3ccccc3)c3ccccc[c+]3N2Cc2ccccc2)c1` (stereo not shown) [Compound 6e], the “cells in G2/M phase” value in the series on HeLa cells [1] (control 24.36%) stood at 7.05%. In the series with HeLa cells [1] (control 28.84%), the “cells in S phase” value amounted to 34.61%. Also, the “cells in G0/G1 phase” value in the series on HeLa cells [1] (control 46.78%) is on record as 58.33%. The “effect on cell migration in scratch wound” value in the series with HeLa cells [2] is listed as “inhibited cell migration significantly”. Moreover, the “tumor growth / tumor size” value in the series with 4T1 cell derived tumor (day 8 till day 20) is given as “inhibit tumor growth in vivo”. Besides, in the series on 4T1 cell derived tumor (intraperitoneal), the “behavior/activity versus control group” value was “normal behavior/activity” and the “body weight versus control group” value was “no significant difference in body weight”. The compound also showed a viability at 18 h, 50 µM in series [3] of 15.2%. In addition, the “effect on HeLa cell proliferation” value in the series with HeLa cells [4] (10 nM to 50 μM, 18 h) was “retarded HeLa cell proliferation in a dose dependent manner”. The same compound displayed a Cell scavenging in the series on HeLa cells [4] (HeLa, 50 μM, 18 h) of 84.74%. Moreover, the negative logarithm of the IC50 (pIC50) with HeLa cells [4] (HeLa, values given in rebuttal letter of peer review file) was 4.59. The compound also gave a pIC50 with HeLa cells [4] (MTS, 18 h, cell line not named in the sentence (HeLa implied)) of 4.60. Further, the “Hill's coefficient (nH)” value with human genomic DNA is on record as 1.6.

In general, viability refers to a per cent measure of how many cells are alive, often set against a control. High values mean better survival, low ones a greater loss of cells. What is called pIC50 is −log10 of the IC50, conventionally taken in molar units. Higher therefore signals a low IC50.
